Results published in patent US10316017B2, “COT modulators and methods of use thereof” (Gilead Sciences, Inc., priority 2015, dated 2019).

Columns and labels:
[1] = system: TNFα production in LPS-stimulated human monocytes; test: Cot Monocyte TNFα Cell Based Assay; conditions: Homo sapiens, Monocyte, TNFα in LPS-stimulated human monocytes; read-out: EC50 TNF
Outline: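 5,000 cells/well; cmpd 1 h, 37 °C, 0.5% DMSO final; LPS 50 pg/ml, 4 h, 37 °C; media TNFα by HTRF sandwich (cryptate/XL665), RT overnight; % control vs unstimulated/stimulated wells.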

[2] = target: T1, human Cot catalytic domain (30-397 amino acids) (Homo sapiens, UniProt P41279); test: High Throughput Cot Biochemical Assay (KinEASE TR-FRET); conditions: Cot biochemical HTRF (KinEASE TR-FRET) assay; read-out: IC50 HTRF
T1 construct: Purified recombinant human Cot catalytic domain (30-397 amino acids) was purchased from Cama Biosciences; purchased Cama Biosciences (so in the source)
Outline: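 First, purified human Cot (aa 30-397) at 5 nM phosphorylates an XL665-labeled STK3 peptide (1 μM) at 400 μM ATP, pH 7.0, 0.1% DMSO. Then a europium-conjugated phospho-specific antibody binds the product, giving the TR-FRET signal.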

T1 sequence (P41279 30-397): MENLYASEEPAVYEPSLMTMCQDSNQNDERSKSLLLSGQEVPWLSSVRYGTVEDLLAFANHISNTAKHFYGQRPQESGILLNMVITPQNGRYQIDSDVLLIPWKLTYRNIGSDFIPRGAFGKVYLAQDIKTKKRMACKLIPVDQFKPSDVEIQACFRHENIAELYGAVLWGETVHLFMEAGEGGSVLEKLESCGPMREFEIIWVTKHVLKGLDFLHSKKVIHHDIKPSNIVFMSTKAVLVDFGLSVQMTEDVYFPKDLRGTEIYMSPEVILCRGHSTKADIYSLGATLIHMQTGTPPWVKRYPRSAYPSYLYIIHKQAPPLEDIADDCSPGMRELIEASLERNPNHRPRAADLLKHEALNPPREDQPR

| SMILES | EC50 [1] | IC50 [2] |
| --- | --- | --- |
| CN(C)C(=O)c1cccc([C@H](Nc2cc(Cl)c3ncc(C#N)c(Nc4cccc(Cl)c4F)c3c2)c2c[nH]nn2)c1 [Example 606, (S)-3-(((8-chloro-4-((3-chloro-2-fluorophenyl)amino)-3-cyanoquinolin-6-yl)amino)(1H-1,2,3-triazol-4-yl)methyl)-N,N-dimethylbenzamide] | 348 nM | 2 nM |
| CC(C)n1cc([C@@H](Nc2cc(Cl)c3ncc(C#N)c(Nc4cccc(Cl)c4F)c3c2)c2cccc(C(=O)N(C)C)c2)nn1 [Example 607, (S)-3-(((8-chloro-4-((3-chloro-2-fluorophenyl)amino)-3-cyanoquinolin-6-yl)amino)(1-isopropyl-1H-1,2,3-triazol-4-yl)methyl)-N,N-dimethylbenzamide] | 198 nM | 2 nM |
| CN(C)C(=O)c1cccc([C@H](Nc2cc(Cl)c3ncc(C#N)c(Nc4cccc(Cl)c4F)c3c2)c2cn(C3CCN(C(C)(C)C)CC3)nn2)c1 [Example 608, (S)-3-((1-(1-(tert-butyl)piperidin-4-yl)-1H-1,2,3-triazol-4-yl)((8-chloro-4-((3-chloro-2-fluorophenyl)amino)-3-cyanoquinolin-6-yl)amino)methyl)-N,N-dimethylbenzamide] | 41 nM | 1 nM |
| N#Cc1cnc2c(Cl)cc(N[C@@H](c3ccccc3)c3cn(C4CC4)nn3)cc2c1Nc1ccc(F)c(Cl)c1 [Example 609, (S)-8-chloro-4-((3-chloro-4-fluorophenyl)amino)-6-(((1-cyclopropyl-1H-1,2,3-triazol-4-yl)(phenyl)methyl)amino) quinoline-3-carbonitrile] | 384 nM | 7 nM |
| CC(C)(O)Cn1cc([C@@H](Nc2cc(Cl)c3ncc(C#N)c(Nc4ccc(F)c(Cl)c4)c3c2)c2ccccc2)nn1 [Example 610, (S)-8-chloro-4-((3-chloro-4-fluorophenyl)amino)-6-(((1-(2-hydroxy-2-methylpropyl)-1H-1,2,3-triazol-4-yl)(phenyl)methyl)amino) quinoline-3-carbonitrile] | 337 nM | 14 nM |
| CC(C)(C)N1CCC(n2cc([C@@H](Nc3cc(Cl)c4ncc(C#N)c(Nc5ccsc5Cl)c4c3)c3ccccc3)nn2)CC1 [Example 611, (S)-6-(((1-(1-(tert-butyl)piperidin-4-yl)-1H-1,2,3-triazol-4-yl)(phenyl)methyl)amino)-8-chloro-4-((2-chlorothiophen-3-yl)amino)quinoline-3-carbonitrile] | 369 nM | 51 nM |
| CC(C)(C)N1CCC(n2cc([C@@H](Nc3cc(Cl)c4ncc(C#N)c(Nc5cscc5Cl)c4c3)c3ccccc3)nn2)CC1 [Example 612, (S)-6-(((1-(1-(tert-butyl)piperidin-4-yl)-1H-1,2,3-triazol-4-yl)(phenyl)methyl)amino)-8-chloro-4-((4-chlorothiophen-3-yl)amino)quinoline-3-carbonitrile] | 2020 nM | 84 nM |
| N#Cc1cnc2c(Cl)cc(N[C@@H](c3ccccc3)c3c[nH]nn3)cc2c1Nc1cccc(Cl)c1F [Example 613, (S)-8-chloro-4-((3-chloro-2-fluorophenyl)amino)-6-((phenyl(1H-1,2,3-triazol-4-yl)methyl)amino)quinoline-3-carbonitrile] | 708 nM | 41 nM |
| N#Cc1cnc2c(Cl)cc(N[C@@H](c3ccc(Cl)cc3)c3c[nH]nn3)cc2c1Nc1ccc(O)c(Cl)c1 [Example 614, (S)-8-chloro-4-((3-chloro-4-hydroxyphenyl)amino)-6-(((4-chlorophenyl)(1H-1,2,3-triazol-4-yl)methyl)amino)quinoline-3-carbonitrile] | 1110 nM | 123 nM |
| CC1(Nc2c(C#N)cnc3c(Cl)cc(N[C@@H](c4ccccc4)c4cn(C5CCN(C(C)(C)C)CC5)nn4)cc23)CCCCCC1 [Example 615, (S)-6-(((1-(1-(tert-butyl)piperidin-4-yl)-1H-1,2,3-4-yl)(phenyl)methyl)amino)-8-chloro-4-((1-methylcycloheptyl)amino) quinoline-3-carbonitrile] | 719 nM | 141 nM |
| CC(C)(C)N1CCC(n2cc([C@@H](Nc3cc(Cl)c4ncc(C#N)c(NCc5ccccc5Cl)c4c3)c3ccccc3)nn2)CC1 [Example 616, (S)-6-(((1-(1-(tert-butyl)piperidin-4-yl)-1H-1,2,3-triazol-4-yl)(phenyl)methyl)amino)-8-chloro-4-((2-chlorobenzyl)amino)quinoline-3-carbonitrile] | 2180 nM | 40 nM |
| CC(C)(C)N1CCC(n2cc([C@@H](Nc3cc(Cl)c4ncc(C#N)c(NCc5cccc(F)c5F)c4c3)c3ccccc3)nn2)CC1 [Example 617, (S)-6-(((1-(1-(tert-butyl)piperidin-4-yl)-1H-1,2,3-triazol-4-yl)(phenyl)methyl)amino)-8-chloro-4-((2,3-difluorobenzyl)amino)quinoline-3-carbonitrile] | 12300 nM | 43 nM |
| CC(C)(C)N1CCC(n2cc([C@@H](Nc3cc(Cl)c4ncc(C#N)c(NCc5ccccc5F)c4c3)c3ccccc3)nn2)CC1 [Example 618, (S)-6-(((1-(1-(tert-butyl)piperidin-4-yl)-1H-1,2,3-triazol-4-yl)(phenyl)methyl)amino)-8-chloro-4-((2-fluorobenzyl)amino)quinoline-3-carbonitrile] | 1700 nM | 53 nM |
| C[C@@H](Nc1c(C#N)cnc2c(Cl)cc(N[C@@H](c3ccccc3)c3cn(C4CCN(C(C)(C)C)CC4)nn3)cc12)c1ccccc1F [Example 619, 6-(((S)-(1-(1-(tert-butyl)piperidin-4-yl)-1H-1,2,3-triazol-4-yl)(phenyl)methyl)amino)-8-chloro-4-(((R)-1-(2-fluorophenyl)ethyl)amino) quinoline-3-carbonitrile] | 826 nM | 16 nM |
| CNc1cccc([C@H](Nc2cc(Cl)c3ncc(C#N)c(Nc4ccc(F)c(Cl)c4)c3c2)c2cn(C3CCN(C(C)(C)C)CC3)nn2)c1 [Example 620, (S)-6-(((1-(1-(tert-butyl)piperidin-4-yl)-1H-1,2,3-triazol-4-yl)(3-(methylamino)phenyl)methyl)amino)-8-chloro-4-((3-chloro-4-fluorophenyl)amino)quinoline-3-carbonitrile] | 96 nM | 6 nM |
| COC1CN(C(=O)c2cccc([C@H](Nc3cc(Cl)c4ncc(C#N)c(Nc5ccc(F)c(Cl)c5)c4c3)c3cn(C4CCN(C(C)(C)C)CC4)nn3)c2)C1 [Example 621, (S)-6-(((1-(1-(tert-butyl)piperidin-4-yl)-1H-1,2,3-triazol-4-yl)(3-(3-methoxyazetidine-1-carbonyl)phenyl)methyl)amino)-8-chloro-4-((3-chloro-4-fluorophenyl)amino)quinoline-3-carbonitrile] | 112 nM | 2 nM |
| CN(C)C1CN(C(=O)c2cccc([C@H](Nc3cc(Cl)c4ncc(C#N)c(Nc5ccc(F)c(Cl)c5)c4c3)c3cn(C4CCN(C(C)(C)C)CC4)nn3)c2)C1 [Example 622, (S)-6-(((1-(1-(tert-butyl)piperidin-4-yl)-1H-1,2,3-triazol-4-yl)(3-(3-(dimethylamino)azetidine-1-carbonyl)phenyl)methyl)amino)-8-chloro-4-((3-chloro-4-fluorophenyl)amino)quinoline-3-carbonitrile] | 851 nM | 5 nM |
| CC(=O)N(C)c1cccc([C@H](Nc2cc(Cl)c3ncc(C#N)c(Nc4ccc(F)c(Cl)c4)c3c2)c2cn(C3CCN(C(C)(C)C)CC3)nn2)c1 [Example 623, (S)-N-(3-((1-(1-(tert-butyl)piperidin-4-yl)-1H-1,2,3-triazol-4-yl)((8-chloro-4-((3-chloro-4-fluorophenyl)amino)-3-cyanoquinolin-6-yl)amino)methyl)phenyl)-N-methylacetamide] | 90 nM | 1 nM |
| CC(=O)Nc1cccc([C@H](Nc2cc(Cl)c3ncc(C#N)c(Nc4ccc(F)c(Cl)c4)c3c2)c2cn(C3CCN(C(C)(C)C)CC3)nn2)c1 [Example 624, (S)-N-(3-((1-(1-(tert-butyl)piperidin-4-yl)-1H-1,2,3-triazol-4-yl)((8-chloro-4-((3-chloro-4-fluorophenyl)amino)-3-cyanoquinolin-6-yl)amino)methyl)phenyl)acetamide] | 266 nM | 3 nM |
| N#Cc1cnc2c(Cl)cc(N[C@@H](c3ccccc3)c3cn(C4CCN(C5COC5)CC4)nn3)cc2c1Nc1ccc(Cl)c(Cl)c1F [Example 625, (S)-8-chloro-4-((3,4-dichloro-2-fluorophenyl)amino)-6-(((1-(1-(oxetan-3-yl)piperidin-4-yl)-1H-1,2,3-triazol-4-yl)(phenyl)methyl)amino) quinoline-3-carbonitrile] | 1160 nM | 116 nM |
| CC[C@@H](Nc1c(C#N)cnc2c(Cl)cc(N[C@H](c3ccccc3)c3c[nH]nn3)cc12)c1ccccc1 [Example 626, 8-chloro-6-(((R)-phenyl(1H-1,2,3-triazol-4-yl)methyl)amino)-4-(((R)-1-phenylpropyl)amino) quinoline-3-carbonitrile] | > 50000 nM | 784 nM |
| CC[C@@H](Nc1c(C#N)cnc2c(Cl)cc(N[C@@H](c3ccccc3)c3c[nH]nn3)cc12)c1ccccc1 [Example 627, 8-chloro-6-(((S)-phenyl(1H-1,2,3-triazol-4-yl)methyl)amino)-4-(((R)-1-phenylpropyl)amino) quinoline-3-carbonitrile] | 456 nM | 16 nM |
